Literature values as cited in PubChem BioAssay AID1259409 (Chemical Carcinogenesis Research Information System (CCRIS), 2018).

Test system: rodent chemically induced tumor inhibition, incidence and multiplicity
Assay: CCRIS tumor inhibitor studies

CC1=C(/C=C/C(C)=C/C=C/C(C)=C/C=C/C=C(C)/C=C/C=C(C)/C=C/C2=C(C)CCCC2(C)C)C(C)(C)CCC1
tumour outcome (control, treated, inhibition, significance) (Carcinogen: DIESEL EXHAUST PARTICLES, Dose [Inhibitor]: 0, 0.02% IN HIGH FAT DIET FOR DURATION OF STUDY (STUDY DURATION: 12 MO), Route [Inhibitor]: ORAL, Species: MOUSE, Strain/Sex: ICR/MALE, Target Tissue: Type of Lesion: LUNG: TUMOR, Dose [Carcinogen]: 0.1 MG 1/WK FOR 10 WK, Promoter: NONE USED): 13/30 (43%), 5/30 (17%), 60%, not calculated | tumour outcome (control, treated, inhibition, significance) (Carcinogen: DIESEL EXHAUST PARTICLES, Dose [Inhibitor]: 0, 0.02% IN HIGH FAT DIET FOR DURATION OF STUDY (STUDY DURATION: 12 MO), Route [Inhibitor]: ORAL, Species: MOUSE, Strain/Sex: ICR/MALE, Target Tissue: Type of Lesion: LUNG: TUMOR, Dose [Carcinogen]: 0.2 MG 1/WK FOR 10 WK, Promoter: NONE USED): 7/29 (24%), 11/29 (38%), -58%, not calculated | tumour outcome (control, treated, inhibition, significance) (Carcinogen: DIESEL EXHAUST PARTICLES, Dose [Inhibitor]: 0, 0.02% IN HIGH FAT DIET FOR DURATION OF STUDY (STUDY DURATION: 12 MO), Route [Inhibitor]: ORAL, Species: MOUSE, Strain/Sex: ICR/MALE, Target Tissue: Type of Lesion: LYMPHATIC SYSTEM: LYMPHOMA, Dose [Carcinogen]: 0.1 MG 1/WK FOR 10 WK, Promoter: NONE USED): 3/30 (10%), 9/30 (30%), -200%, not calculated | tumour outcome (control, treated, inhibition, significance) (Carcinogen: DIESEL EXHAUST PARTICLES, Dose [Inhibitor]: 0, 0.02% IN HIGH FAT DIET FOR DURATION OF STUDY (STUDY DURATION: 12 MO), Route [Inhibitor]: ORAL, Species: MOUSE, Strain/Sex: ICR/MALE, Target Tissue: Type of Lesion: LYMPHATIC SYSTEM: LYMPHOMA, Dose [Carcinogen]: 0.2 MG 1/WK FOR 10 WK, Promoter: NONE USED): 8/29 (28%), 4/29 (14%), 50%, not calculated | tumour outcome (control, treated, inhibition, significance) (Carcinogen: DIETHYLNITROSAMINE, 55-18-5, Dose [Inhibitor]: 0, 0.005% IN DIET FOR DURATION OF STUDY (STUDY DURATION: 13 WKS), Route [Inhibitor]: ORAL, Species: HAMSTER, Strain/Sex: SYRIAN/MALE, Target Tissue: Type of Lesion: LARYNX/TRACHEA: PAPILLOMA, Dose [Carcinogen]: 100 MG/KG BW ONCE, Promoter: CIGARETTE SMOKE): 13/28 (46%), 10/28 (36%), 22%, not significant | tumour outcome (control, treated, inhibition, significance) (Carcinogen: DIETHYLNITROSAMINE, 55-18-5, Dose [Inhibitor]: 0, 0.05% IN DIET FOR DURATION OF STUDY (STUDY DURATION: 13 WKS), Route [Inhibitor]: ORAL, Species: HAMSTER, Strain/Sex: SYRIAN/MALE, Target Tissue: Type of Lesion: LARYNX/TRACHEA: PAPILLOMA, Dose [Carcinogen]: 100 MG/KG BW ONCE, Promoter: CIGARETTE SMOKE): 13/28 (46%), 11/29 (38%), 17%, not significant | tumour outcome (control, treated, inhibition, significance) (Carcinogen: DIETHYLNITROSAMINE, 55-18-5, Dose [Inhibitor]: 0, 0.5% IN DIET FOR 10 D THEN REDUCED TO 0.25% FOR DURATION OF STUDY (STUDY DURATION: 13 WKS), Route [Inhibitor]: ORAL, Species: HAMSTER, Strain/Sex: SYRIAN/MALE, Target Tissue: Type of Lesion: LARYNX/TRACHEA: PAPILLOMA, Dose [Carcinogen]: 100 MG/KG BW ONCE, Promoter: CIGARETTE SMOKE): 13/28 (46%), 4/26 (15%), 67%, p< 0.05 | tumour outcome (control, treated, inhibition, significance) (Carcinogen: DIETHYLNITROSAMINE, 55-18-5, Dose [Inhibitor]: 0, 1.5 MG 2/WK FOR 20 WK (STUDY DURATION: 25 WK), Route [Inhibitor]: SUBCUTANEOUS, Species: HAMSTER, Strain/Sex: SYRIAN/MALE, Target Tissue: Type of Lesion: LUNG: CARCINOMA, Dose [Carcinogen]: 17.8 MG/KG BW 2/WK FOR 20 WK, Promoter: NONE USED): 50%, 26%, 48%, not significant | tumour outcome (control, treated, inhibition, significance) (Carcinogen: DIETHYLNITROSAMINE, 55-18-5, Dose [Inhibitor]: 0, 1.5 MG 2/WK FOR 20 WK (STUDY DURATION: 25 WK), Route [Inhibitor]: SUBCUTANEOUS, Species: HAMSTER, Strain/Sex: SYRIAN/MALE, Target Tissue: Type of Lesion: TRACHEA: PAPILLOMA, Dose [Carcinogen]: 17.8 MG/KG BW 2/WK FOR 20 WK, Promoter: NONE USED): 95%, 100%, -5%, not significant | tumour outcome (control, treated, inhibition, significance) (Carcinogen: DIETHYLNITROSAMINE, 55-18-5, Dose [Inhibitor]: 0, 3 MG 2/WK FOR 20 WK (STUDY DURATION: 25 WK), Route [Inhibitor]: SUBCUTANEOUS, Species: HAMSTER, Strain/Sex: SYRIAN/MALE, Target Tissue: Type of Lesion: LUNG: CARCINOMA, Dose [Carcinogen]: 17.8 MG/KG BW 2/WK FOR 20 WK, Promoter: NONE USED): 60%, 30%, 50%, not significant | tumour outcome (control, treated, inhibition, significance) (Carcinogen: DIETHYLNITROSAMINE, 55-18-5, Dose [Inhibitor]: 0, 3 MG 2/WK FOR 20 WK (STUDY DURATION: 25 WK), Route [Inhibitor]: SUBCUTANEOUS, Species: HAMSTER, Strain/Sex: SYRIAN/MALE, Target Tissue: Type of Lesion: TRACHEA: PAPILLOMA, Dose [Carcinogen]: 17.8 MG/KG BW 2/WK FOR 20 WK, Promoter: NONE USED): 100%, 100%, 0%, not significant | tumour outcome (control, treated, inhibition, significance) (Carcinogen: DIMETHYLBENZ[A]ANTHRACENE, 57-97-6, Dose [Inhibitor]: 0.25 ML OF 0.015% AGENT IN ACETONE ADMINISTERED WITH PROMOTER 5/WK FOR 16 WK BEGINNING 3 WK POST CARCINOGEN DOSE (STUDY, Route [Inhibitor]: DERMAL, Species: MOUSE, Strain/Sex: ICR/FEMALE, Target Tissue: Type of Lesion: SKIN: PAPILLOMA, Dose [Carcinogen]: 0.125 MG IN 0.25 ML ACETONE ONCE, Promoter: PHENOL, 108-95-2): 7/25 (28%), 6/28 (21%), 25%, not calculated | tumour outcome (control, treated, inhibition, significance) (Carcinogen: DIMETHYLBENZ[A]ANTHRACENE, 57-97-6, Dose [Inhibitor]: 100 MG/KG OF DIET IMMEDIATELY FOLLOWING CARCINOGEN DOSE FOR 22 WK (STUDY DURATION: 22 WK), Route [Inhibitor]: ORAL, Species: RAT, Strain/Sex: SPRAGUE-DAWLEY/MALE, Target Tissue: Type of Lesion: SALIVARY GLAND: TUMOR, Dose [Carcinogen]: 1 MG IN OLIVE OIL INJECTED INTO ONE SALIVARY GLAND ONCE, Promoter: NONE USED): 3/9 (33%), 1/11 (9%), 73%, not significant | tumour outcome (control, treated, inhibition, significance) (Carcinogen: METHYL(ACETOXYMETHYL)NITROSAMINE, 56856-83-8, Dose [Inhibitor]: 0, 5.8 NMOL IN DRINKING WATER BEGINNING 2 WK PRIOR TO CARCINOGEN AND CONTINUED FOR STUDY DURATION, (STUDY DURATION: 13 M, Dose [Inhibitor]: 0, 5.8 NMOL IN DRINKING WATER BEGINNING 2 WK PRIOR TO CARCINOGEN AND CONTINUED FOR STUDY DURATION, (STUDY DURATION: 13 M, Route [Inhibitor]: ORAL, Species: HAMSTER, Strain/Sex: SYRIAN/FEMALE, Target Tissue: Type of Lesion: ORAL CAVITY: TUMOR, Dose [Carcinogen]: 2 MG/KG BW IN DISTILLED WATER TO RIGHT CHEEK POUCH 2/MO FOR 6 MO (TOTAL DOSE 24 MG/KG), Promoter: NONE USED): 14/15 (93%), 4/15 (27%), 71%, p<0.001 | tumour outcome (control, treated, inhibition, significance) (Carcinogen: N-BUTYL-N-(4-HYDROXYBUTYL)NITROSAMINE, 3817-11-6, Dose [Inhibitor]: 0, 0.0025% IN DRINKING WATER FOR 12 WK BEGINNING POST CARCINOGEN TREATMENT (STUDY DURATION: 20 WK), Route [Inhibitor]: ORAL, Species: RAT, Strain/Sex: F344/MALE, Target Tissue: Type of Lesion: URINARY BLADDER: TRANSITIONAL CELL CARCINOMA, Dose [Carcinogen]: 0.05% IN DRINKING WATER FOR 8 WK, Promoter: NONE USED): 10/12 (83%), 12/12 (100%), -20%, not significant | tumour outcome (control, treated, inhibition, significance) (Carcinogen: N-BUTYL-N-(4-HYDROXYBUTYL)NITROSAMINE, 3817-11-6, Dose [Inhibitor]: 0, 0.1% IN DIET BEGINNING 5 WK PRIOR TO CARCINOGEN TREATMENT AND CONTINUING FOR DURATION OF STUDY (STUDY DURATION: 7 MO), Route [Inhibitor]: ORAL, Species: MOUSE, Strain/Sex: B6D2F1/MALE, Target Tissue: Type of Lesion: BLADDER: CARCINOMA IN SITU, Dose [Carcinogen]: 5 MG IN SALINE SOLUTION 2/WK FOR 9 WK, Promoter: NONE USED): 7/24 (29%), 3/24 (13%), 55%, not calculated | tumour outcome (control, treated, inhibition, significance) (Carcinogen: N-BUTYL-N-(4-HYDROXYBUTYL)NITROSAMINE, 3817-11-6, Dose [Inhibitor]: 0, 0.1% IN DIET BEGINNING 5 WK PRIOR TO CARCINOGEN TREATMENT AND CONTINUING FOR DURATION OF STUDY (STUDY DURATION: 7 MO), Route [Inhibitor]: ORAL, Species: MOUSE, Strain/Sex: B6D2F1/MALE, Target Tissue: Type of Lesion: BLADDER: TRANSITIONAL CELL CARCINOMA, Dose [Carcinogen]: 5 MG IN SALINE SOLUTION 2/WK FOR 9 WK, Promoter: NONE USED): 8/24 (33%), 5/24 (21%), 36%, not calculated | tumour outcome (control, treated, inhibition, significance) (Carcinogen: N-BUTYL-N-(4-HYDROXYBUTYL)NITROSAMINE, 3817-11-6, Dose [Inhibitor]: 0, 0.1% IN DIET BEGINNING 5 WK PRIOR TO CARCINOGEN TREATMENT AND CONTINUING FOR DURATION OF STUDY (STUDY DURATION: 7 MO), Route [Inhibitor]: ORAL, Species: MOUSE, Strain/Sex: B6D2F1/MALE, Target Tissue: Type of Lesion: BLADDER: TUMOR, Dose [Carcinogen]: 5 MG IN SALINE SOLUTION 2/WK FOR 9 WK, Promoter: NONE USED): 15/24 (63%), 8/24 (33%), 48%, p<0.05
